Our source for the melting point values is a melting point compilation (Tetko et al.; mined from patent text by program, amines drawn as free bases though some values may be those of a salt).

SMILES strings stand for the structures.

One may read the melting point as the temperature, or range, at which the solid turns liquid.

Take `Nc1cccc(CCc2n[nH]c3c2c(=O)n(-c2ccccc2)c2ncccc32)c1`: the melting point was in the range of 229 to 231 °C.
On to `CCNC(=O)[C@@H]1C[C@H](SCc2ccc(OC)cc2)CN1C(=O)OC(C)(C)C`, for which the melting point was in the range of 92 to 94 °C.
For `CCc1cccc(C)c1CNc1nc(Br)cc(N)c1[N+](=O)[O-]`, the melting point lay in the range of 126 to 128 °C.
Under `Cc1c(CC(=O)NCCCO)cc(-c2ccc(S(C)(=O)=O)cc2)n1-c1ccc(F)cc1` stands 105 °C.
For `CC1(c2cc(N3C(=O)C4=C(CCCC4)C3=O)c(F)cc2Cl)OCCO1` the value was 147 °C; for `O=C(O)CCc1oc(Sc2nccn2-c2ccccc2)nc1-c1ccc(Cl)cc1`, 185 to 187 °C.
For `O=C(Nc1ccc(OCCN2CCCC2=O)c2ccccc12)c1cc(F)cc(N2CCOCC2)c1` the value was 172 to 173 °C; for `CCc1nc2c(N)nc3ccccc3c2n1CCOCCNC(=O)c1ccccc1`, 188 to 191 °C.
Molecule `O=c1[nH]c(=O)n(CCCCN2CC=C(c3ccccc3)CC2)c2ccccc12` came in with a melting point of 170 to 174 °C.
For `Cc1cc2ccccc2n2c(S)nnc12` the value was 268 °C.
For `CCNc1nc(CC)c(-c2ccncc2)s1` the value was 126 to 128 °C.
Take `Cc1c2ccccc2c2c3c(cccc13)C(=O)OC2=O`: the melting point fell in the range of 275 to 280 °C.
For `CC(=O)N(CCc1nc(-c2ccccc2)oc1C)Cc1ccc(C[C@@H](C(=O)O)n2cccc2)cc1` the value was 82 to 87 °C; for `Cc1ncsc1C(C)(O)c1ccsc1` (centres undefined), 149 to 151 °C.
For `N#CCCNC(=O)c1cccc(-c2cccc3nn(Cc4ccc(F)c(F)c4)cc23)c1` the value was 191 to 192 °C; for `Cc1cc2cc(CN3CCCC3)cnc2cc1NC(=O)c1ccc(-c2ccccc2)cc1F`, 180 to 183 °C; for `C=CC(=O)OCCCCCCCCCCCCOc1ccc(-c2cccc(F)c2F)cc1`, 59.7 to 60.7 °C.
Under `O=S(=O)(CCO)CCCS(=O)(=O)CCO` stands 158 to 161 °C; under `CON(C)C(=O)Nc1cccc(OC(C)C(N)=S)c1` (centres undefined), 95 to 96 °C; under `C[C@@H](n1ncn(-c2ccc(-n3ccn(-c4ccc(OCC(F)(F)C(F)F)cc4)c3=O)cc2)c1=O)[C@](O)(Cn1cncn1)c1ccc(F)cc1F`, 181 to 183 °C.
For the molecule `Nc1cccc2c1C(=O)N1CCC[C@H]1c1c(C(=O)OC3CCCCC3)ncn1-2`, the melting point fell in the range of 211 to 212 °C.
For `COC(=O)COc1cc2c(c(Cl)c1Cl)C(=O)C(CC#C[Si](C)(C)C)(c1ccccc1)C2` (centres undefined) the value was 126 to 127 °C.
For `Cc1ccc(C(=O)Oc2ccc3c(OC(=O)c4ccc(C)c(O)c4)c4ccccc4cc3c2OC(=O)c2ccc(C)c(O)c2)cc1O` the value was 251 °C; for `CCCC1(C(=O)NCCN2CCC(N3Cc4ccccc4C3=O)CC2)c2ccccc2-c2ccccc21`, 219 to 221 °C.
The molecule `O=c1[nH]nnn1-c1cc(C(F)(F)F)cc(C(F)(F)F)c1` gave a melting point of 145 to 147 °C.
Under `CN1C(c2ccc(F)cc2)=NC(C(F)(F)F)(C(F)(F)F)C1CC(=O)c1ccc(F)cc1` (centres undefined) stands 145 to 147 °C; under `O=C1NC(=O)c2ccc(-c3ccc(CN4CCCCC4)cc3)cc2C1=CNc1ccc(CN2CCCCC2)cc1`, 159 to 160 °C.
For `Fc1ccc(Cn2c(NC3CCN(CCNc4nc5ccccc5n4Cc4ccc(Cl)c(Cl)c4)CC3)nc3ccccc32)cc1` the value was 113 °C; for `CCOC(=O)C(OCc1ccc(-c2ccc(Cl)cc2)cc1)c1ccccc1` (centres undefined), 50 to 51 °C.
`CC(C)(C)CC(=O)Nc1ccc2oc3c(c2c1)CCCC3` showed a melting point of 164 to 165 °C.
For `N#Cc1ccc2cc(C(N)=O)[nH]c2c1` the value was 241 to 242 °C; for `CC(=O)c1c(-c2ccncc2)[nH]c(-c2ccnc3ccccc23)c1C`, 237 to 239 °C.
In turn, `CCOc1ccc(-c2nc(CCC(=O)c3ccccc3C#N)cs2)cc1OCC` displayed a melting point of 114 to 115 °C.
For `CC(=O)Nc1coc2ccc(C(C)(C)C)cc2c1=S` the value was 215 °C; for `CC(=O)N(C)c1c(C(=O)c2cccc(C)c2)[nH]c2cc(Cl)ccc12`, 166 to 171 °C.
For `O=[N+]([O-])c1ccc2c(c1)C(O)c1cccnc1CC2` (centres undefined) the value was 222 to 223 °C; for `CC(C)(C)c1ccc(CN2CCNC2=O)cc1`, 122 to 127 °C; for `CCCC(=O)c1cnc2c(OC)cccc2c1Nc1ccsc1CC`, 119 to 121 °C.
For `Clc1ccc2c(c1)N(C1CN3CCC1CC3)c1ccccc1S2` (centres undefined), the melting point came out at 165 °C.
Regarding `Nc1nc2c(sc(=O)n2C2OC(CO)C(O)C2F)c(=O)[nH]1` (centres undefined), the melting point was 232 to 234 °C.
The molecule `CC(C)(C)OC(=O)N1CCc2c(cccc2C(=O)c2cc(Cl)ccc2N)C1` registered a melting point of 159 to 160 °C.
Under `CCNC(=O)c1ccc(Oc2c(C)n(CC(=O)O)c3ccc(F)cc23)cc1` stands 220 to 222 °C; under `O=C(C(=O)c1ccc(F)c(CF)c1)c1ccc(OC(F)F)cc1`, 68 to 70 °C; under `O=C(CCC(O)c1cccs1)Nc1cccc2cc(-c3nccs3)[nH]c12` (centres undefined), 155 to 157 °C.
Turning to `S=C=Nc1ccc(Nc2ccncc2)cc1`, the melting point lay in the range of 195 to 196 °C.
Under `CC#CC(C)(C)NC(=O)C(CC)Oc1ccc2ccncc2c1` (centres undefined) stands 149 to 150 °C; under `CC1=CC(O)C(OC(=O)c2ccc([N+](=O)[O-])cc2)C(C)(C)CC1=O` (centres undefined), 148 to 150 °C; under `COc1cc(OC)c2c(=O)[nH]c(-c3ccc(OCCN(C(=O)OC(C)(C)C)C(C)C)c(-c4ccc(S(C)=O)cc4)n3)nc2c1` (centres undefined), 114 to 116 °C.
Under `COc1cc(-c2nc3ccc(OCCN4CCCCC4)cc3n2Cc2ccccc2Br)cc(OC)c1OC` stands 145 °C; under `Cc1c(Cl)cc2nc(Cl)c(Cl)nc2c1[N+](=O)[O-]`, 121 to 122 °C.
For `O=C(O)c1ccc(-c2ccn(-c3ccc(C(F)(F)F)cc3)c2)cc1` the value was 315 to 317 °C; for `O=C(CCl)Nc1ccc2c(c1NC(=O)c1ccccc1F)C(=O)c1ccccc1C2=O`, 245 to 246 °C.
Consider `CC(=O)NC[C@H]1CN(c2ccc(N3CCN(c4ccc([N+](=O)[O-])o4)CC3)c(F)c2)C(=O)O1`, for which the melting point was in the range of 191 to 204 °C.
Under `CC(C)Cn1c(CCCCNC(=O)OC(C)(C)C)nc2c(N)nc3ccccc3c21` stands 165 to 167 °C; under `COc1ccc(CSc2nnc(-c3ccnc(NC(=O)OC(C)(C)C)c3)o2)cc1F`, 244 to 245 °C.
For `O=[N+]([O-])c1ccc(CCc2nnco2)cc1` the value was 93 to 94 °C; for `CCCCc1nc2cc[nH]c(=O)c2n1Cc1ccc([N+](=O)[O-])cc1`, 193 to 194 °C.
Under `COc1ccc(C2C(C(=O)/C=C/c3ccc(O)c(OC)c3)C(=O)CC(c3ccc(O)c(OC)c3)C2[N+](=O)[O-])cc1` (centres undefined) stands 83 to 85 °C; under `COc1ccc(C)c(NC(=O)CC23CC4CC(CC(C4)C2)C3)c1`, 147 °C; under `COc1ccc(S(=O)(=O)Nc2ccccc2NC(=O)c2cnccc2C)cc1`, 199 to 200 °C.
The molecule `CS(=O)(=O)c1ccc(C(=O)c2c(O)cc(Cl)cc2Cl)c(Cl)c1` gave a melting point of 123 to 126 °C.
For `CCNC(=O)c1ccccc1Nc1nc(Nc2c(OC)ccc3c2CC(=O)N(CC)CC3)ncc1Cl` the value was 117 to 141 °C.
The molecule `N#Cc1cc2c(cc1F)S(=O)(=O)NCN2C1CC1` gave a melting point of 208 to 210 °C.
Under `CC(C)CCCC(C)Cc1cncn1Cc1ccccc1` (centres undefined) stands 61 to 62 °C.
Under `Cc1ccc(C23CN(C)CC2CC32SCCS2)cc1` (centres undefined) stands 81 to 86 °C; under `CCOC(=O)C1=C(C)NC(C)=C(C(=O)OC)C1c1ccccc1C#N` (centres undefined), 178 °C.
As for `CCOC(=O)C1(O)C=CC(N=Nc2ccccc2)=CC1` (centres undefined), the melting point was in the range of 153 to 154 °C.
Under `COc1cc(C(=O)CS(=O)(=O)c2ccccc2)ccc1Cc1cn(C)c2ccc(NC(=O)NC3CCCC3)cc12` stands 203 to 206 °C.
In turn, `COCCc1nc2c(N)nc3ccccc3c2n1CC1(O)CCC1` yielded a melting point of 169 to 171 °C.
Molecule `COC(=O)c1cc2nc(-c3ccccc3)nn2cc1F` came in with a melting point of 162 to 168 °C.
Under `Cc1ccc(C(=O)c2c(-c3ccc(OCC(O)CNC(C)C)cc3)oc3ccccc23)cc1` (centres undefined) stands 65 to 75 °C.
Under `CN(C)CCCNC(=O)c1ccccc1-c1cc2cc(Cl)c(Cl)cc2[nH]1` stands 169 °C; under `Cc1cc(Cl)cc(C(=O)NCC2CCO2)c1NC(=O)c1cc(Br)nn1-c1ncccc1Cl` (centres undefined), 95 to 97 °C; under `CCCCn1c(=O)[nH]c2c(Cl)cc(OC)c(OC)c2c1=N`, 155 to 157 °C.
For `CNc1nc(-c2ccccc2)c(-c2nc3ccccc3c(=O)n2-c2ccc(C)cc2)s1` the value was 192 to 193 °C.
Regarding `CCNC(=O)Nc1ccc(-c2nc3n(Cc4c(F)cccc4F)cc(C(=O)OC(C)C)c(=O)n3c2CN(C)Cc2ccccc2)cc1`, the melting point was in the range of 198 to 200 °C.
For `CC(CNC(=O)[C@@H]1CSC(=O)N1)O[N+](=O)[O-]` (some centres undefined) the value was 70 to 72 °C; for `COc1cc([C@H]2CS[C@@H](c3cc(OC)c(OC)c([N+](=O)[O-])c3)S2)cc(OC)c1OC` (relative stereo), 133 to 134 °C; for `COc1cccc(S(=O)(=O)c2cccc(N)c2C#N)c1`, 186 to 191 °C.
For `COc1cc(C(Cn2ccnc2)Sc2ccc(C(=O)O)cc2)cc(OC)c1OC` (centres undefined) the value was 94 to 97 °C; for `COc1c(C)c(N2CCN(c3ccc4c(c3)OCCO4)CC2)c(C)c2c1OC(C)(C)C2`, 167 to 168 °C; for `C(C#Cc1c2ccccc2cc2ccccc12)#Cc1c2ccccc2cc2ccccc12`, 280 to 282 °C.
On to `Cc1cc(C(=O)O)ccc1Sc1cc2c(cc1C)C(C)(C)CCC2(C)C`, for which the melting point lay in the range of 217 to 218 °C.
Under `CCCCCCCCCCCCCOCCCCO` stands 26 to 29 °C.
